Assay [1] relates to Psoroptes cuniculi. The experiment in a line: Filter paper contact test against Psoroptes cuniculi (Rabbit Ear Mite). Format: in vivo. As to conditions: Psoroptes ovis, 24 hour; for mortality at 4 µg/cm2, 4 µg/cm2: 4.0 μg/cm^2, read-out: 24 hour % Mortality; for mortality at 10 µg/cm2, 10 µg/cm2: 10.0 μg/cm^2. Here is the method: On the day prior to the test initiation the drugs to be evaluated are dissolved in acetone and diluted to the desired concentrations. The concentration is calculated so that 400 μl contains the amount of test compound to be placed on each filter paper. 400 μl of this solution is pipetted onto a top (3.7 cm dia.) and bottom (3.5 cm dia.) filter paper disks which are then placed on a ceramic plate to dry. There is a rough and smooth side to the filter paper. Drug should be applied to the rough side which is placed up while drying. When dry the two disks are placed in a Petri dish with the rough sides facing in, separated by one 3 mm glass bead. Dishes are held at room temperature overnight if done the day before the test.
Scab (containing mites) is collected from the ears of infested rabbits the morning of the test. This material is placed in a large Petri dish under an illuminated magnifier. Mites crawl out of the scab and are easily collected on the point of a dissecting needle or one prong of a pair of fine forceps. The top filter paper in each dish is removed and 12 mites are placed on the bottom disk and the top paper replaced. Before replacing the top of the Petri dish the rim of the dish is smeared with Vaseline to trap any escaping mites.
For evaluation tests there are generally 4 replicates of each dose which are counted at 24 hours. After mites are added to the dishes, the dishes in each replicate are placed in a tray which is then placed in a plastic bag with several wet towels and held at room temperature.
After 24 hours dishes are examined under a dissecting scope. Each dish is opened carefully and the top filter paper removed and saved. A 1/2 cm circle is drawn on the bottom filter paper and the paper gently wet in the area of the circle. All mites from the dish are transferred into the wet circle area and counted. The top cover is replaced on each dish and the dishes set aside for at least 15 minutes. After standing the dishes are examined and the mites remaining on the circle counted. These mites are dead. Percent mortality of the mites is then calculated for each treatment.

In assay [2] the test system is Dermacentor variabilis. Kind of assay: Filter paper contact test against larval stages of the Dogtick. Format: in vivo. The following applies: for mortality at 10 µg/cm2, 10 µg/cm2: 10.0 μg/cm^2, 48 hour. Here is the method: The test procedure used herein is the same procedure described in Example 2, for evaluating the arylpyrroles for control of Psoroptes cuniculi the Rabbit Ear Mite, with the following exceptions:
(1) Unfed larval ticks are obtained from egg masses laid by gravid female ticks removed from dogs and each replicate receives ticks from the same egg mass;
(2) Ticks survive longer than mites in the Petri dishes, thus readings are made 48 hours or longer after the test is initiated; and
(3) When reading the test it may be necessary to blow on the ticks to stimulate their movement.

Assay [3] relates to Caenorhabditis elegans. Kind of assay: Nematicidal activity against C. elegans (motility rating). Format: in vivo, C. elegans (Bristol strain). More on the design: key: 9: complete kill; 8: no motility; 7: markedly reduced motility in approximately 95% of worms; 6: reduced motility; 5: slightly reduced motility; 0: normal motility, same as controls. As to conditions: read at 4 and 24 hours post-immersion. Here is the method: Cultures of C. elegans (Bristol strain from J. Lewis) are maintained on E. coli lawns on NG Agar Plates at 20° C. New cultures are established weekly.
Nematodes for testing are washed from 4-5 day old cultures using Fresh Ascaris Ringers Solution (FARS). The worms are further washed with FARS,-containing gentamycin, to reduce bacterial contamination and centrifuged to separate worms from wash solution. This procedure is repeated three times. The washed worms are then added to C. brigassae Maintenance Medium (CbMM), from GIBCOa to which is added gentamycin (600 units/ml) and mycostatin (0.5 mg/ml).
Compounds are dissolved in acetone and made up to volume with equal parts of water. The final test concentration of each compound in the mixture is 150 ppm. The test material is micropipetted (25 ul) into a single well of a 96-well sterile tissue culture plate (COSTAR)^b and the solvent allowed to evaporate. These "treated" plates are used immediately or stored in a refrigerator without apparent adverse effects on the compounds.
A freshly prepared volume ([…]) of C. elegans in CbMM is micropipetted into each treated well and several control wells per plate. Culture plates are incubated at 20° C.
Observations for efficacy are made under a dissecting microscope at 4 and 24 hours post-immersion. Immediately prior to reading the plate, it is gently tapped to stimulate the movement of the worms. Activity is judged based on the drug effects on motility of the adults and larvae. […] Other factors indicating activity are easily noted such as death, rigor mortis, contraction, coiling, paralysis, abnormal twitching, reduced worm population in 48 hours and other deviation from normal behavior.
Day 0 Inoculate E. Coli-NG Agar Dish With 30-40
Day 4 Harvest New C. Elegans Population
Add C. Elegans (25-100 µL) To "Medicated"
Observe for Activity at 4 hours Post-
Day 5 Observe For Activity

Assay [4] has as its system Housefly Larvae. The experiment in a line: Inhibition of pupation of newly emerged housefly larvae. In kind it is in vivo. The following applies: Musca domestica, 168 h, one week, 27° C., corrected by Abbott's formula. Here is the method: In this test system newly emerged housefly larvae are grown on an undefined medium of fermented whole milk and dried beef blood. Compounds are added to the milk and activity is determined by the failure of larvae to pupate.
The test is run in 1 oz. plastic medicine cups. Paper toweling is cut in pieces approximately 3.5×10 cm. Three of these pieces are folded accordion style and placed in each paper cup. A piece of masking tape is placed on the outside of the cup to facilitate numbering. Cups should be prepared prior to the day the test is to begin.
Newly hatched housefly larvae are obtained on the morning the test is to begin. The eggs are laid the night before and larvae usually begin to hatch by 9-10 AM the following morning.
Twenty-four hours before the initiation of the test, one half gallon of whole milk is divided into 5 1-liter beakers and placed in an incubator at 39° C.
The morning of the test, one 250 ml beaker is labeled for each treatment. The fermented milk is removed from the incubator, stirred and poured into each of the small beakers. The beakers are then returned to the incubator and 1-2 g of dried beef blood added to each beaker to distribute blood which will not dissolve. The beakers are again returned to the incubator.
Doses of compounds are calculated so that 0.1 ml contains the amount of compound to be added to 100 ml of milk. Compounds should be dissolved in acetone. 100 μl of acetone is added to each control beaker.
Each beaker is removed from incubator and placed on a magnetic stirrer. The compound is added and thoroughly mixed. Then 20 ml portions are removed and added to labelled test cups (4 reps/treatment). Cups are placed in stainless steel tray until all are prepared. […] The tray containing the cups are then placed in a plastic bag and maintained at room temperature.
The media that the fly eggs are laid in is spread out in a green or black pan so that larvae can be observed. Working under an illuminated magnifier 20 larvae are transferred into each cup using a fine paint brush. Each cup is then sealed in a Zip-Loc sandwich bag with a few pinholes in it.
Bags containing cups are placed on a flat tray and placed in a 27° C. incubator for one week. The majority of the larvae will have pupated at this point.
Trays are then removed from the incubator and the number of pupae in each bag recorded. The paper toweling is removed and examined closely for any pupae that have remained in the cups. Most of the pupae will be loose in the bag. A note is also made of any dead or live developed larvae. If there are larvae that appear capable of pupating, the bag may be returned to the incubator for a day to see if they will pupate.
The percent development of pupae is then calculated. The final results are expressed as a percent inhibition of pupation and are corrected for control mortality by using Abbott's formula.

In assay [5] the test system is Trichostrongylus colubriformis. Kind of assay: Control of helminths (T. colubriformis) in infected gerbils. Format: in vivo, Trichostrongylus colubriformis (sheep origin) in gerbils. As to conditions: 500 PPM in diet, 4 days. An excerpt: Each test generally consists of 75 infected gerbils, randomly distributed 2 or 3 per cage (the number of animals per cage is consistent within a specific experiment). Generally, there are 8-9 untreated control gerbils (3-4 cages) per test. The remaining cages are assigned a treatment, usually 1 cage per compound or dose.
Compounds administered in diet are fed for 4 days. Animals treated by gavage or injection are generally treated on only 1 day (usually day 7).
In accordance with this test, gerbils are each orally infected by gavage, with about 400 Trichostrongylus colubriformis infective larvae of sheep origin. The infected animals are then permitted to feed and drink ad libitum for six days. On day 7 the infected gerbils are randomly placed in rodent cages 2 or 3 animals per cage. The animals in each cage are weighed and the feed for each cage weighed. If the treatment to be evaluated is medicated feed, said medicated feed is offered on day 7 and continued through day 11 of the trial. If the treatment to be evaluated is a single oral dose or a parenteral treatment, the animals are given the medication by gavage or injection on day 7 and receive unmedicated feed and water through day 11 of the trial. On day 11 the animals and their feed are weighed. Thereafter the animals are euthanized by CO2 inhalation and their small intestines removed, inverted on application sticks and incubated in tap water at 39° C. for 1-5 hours. The sticks and intestines are then discarded and the worms from each treatment counted to determine the % mortality of the worms as compared to untreated controls.

`N#Cc1c(Br)[nH]c(-c2ccc(Cl)cc2)c1Br` [2,4-dibromo-5-(p-chlorophenyl)pyrrole-3-carbonitrile]: the mortality at 4 µg/cm2, 4 µg/cm2 in assay [1] was determined as 11%.

Regarding `CCOCn1c(-c2ccc(Br)cc2)c(C#N)c(Br)c1C(F)(F)F` [4-Bromo-2-(P-bromophenyl)-1-(ethoxymethyl)-5-(trifluoromethyl)pyrrole-3-carbonitrile], the mortality at 4 µg/cm2, 4 µg/cm2 in assay [1] amounted to 31%.

For the compound `CCOCn1c(-c2ccc(Cl)cc2)c(C#N)c(Br)c1C(F)(F)F` [4-bromo-2-(P-chlorophenyl)-1-(ethoxymethyl)-5-(trifluoromethyl)pyrrole-3-carbonitrile], the mortality at 1 µg/cm2, 1 µg/cm2 in assay [2] (1.0 μg/cm^2, 48 hour) was determined as 77%. Also, the mortality at 4 µg/cm2, 4 µg/cm2 in assay [2] (4.0 μg/cm^2, 48 hour) is 83%; in assay [1], 76%. The compound further showed a mortality at 5 µg/cm2, 5 µg/cm2 in assay [2] (5.0 μg/cm^2, 48 hour) of 100%. For the same compound, the mortality at 10 µg/cm2, 10 µg/cm2 in assay [2] was 100%. In assay [3], the “Rating Against C. Elegans 150 ppm” value came to 9. In addition, 1 ppm produced 15% inhibition in assay [4] (1.0 ppm). The same compound returned an inhibition at 2.5 ppm in assay [4] (2.5 ppm) of 0%. Besides, in assay [4] (5.0 ppm), testing at 5 ppm gave an inhibition of 38%. At 10 ppm the inhibition in assay [4] was 99%.

Regarding `CCOCn1c(-c2ccc(Cl)cc2)c(C#N)c(Br)c1C(F)(F)F` [4-Bromo-2-(P-chlorophenyl)-1-(ethoxymethyl)-5-(trifluoromethyl)-2-(α,α,α-trifluoro-P-tolyl)pyrrole-3-carbonitrile], in assay [5], the “% Helminth removal” value was determined as 29%.

In assay [2], `Cn1c(Cl)c(Cl)c(C#N)c1-c1ccc(OC(F)(F)F)cc1` [4,5-Dichloro-1-methyl-2-[P-(trifluoromethoxy)phenyl]-pyrrole-3-carbonitrile] yielded a mortality at 10 µg/cm2, 10 µg/cm2 of 55%.

On to `CCOCn1c(C(F)(F)F)cc([N+](=O)[O-])c1-c1ccc(Cl)c(Cl)c1` [2-(3,4-Dichlorophenyl)-1-(ethoxymethyl)-3-nitro-5-(trifluoromethyl)pyrrole], for which, in assay [1], the mortality at 4 µg/cm2, 4 µg/cm2 was determined as 92%.

For the compound `N#Cc1c(-c2ccc(Cl)c(Cl)c2)[nH]c(Cl)c1Cl` [4,5-dichloro-2-(3,4-dichlorophenyl)pyrrole-3-carbonitrile], the mortality at 10 µg/cm2, 10 µg/cm2 in assay [2] came out at 40%; in assay [1], 33%.

With “4-Bromo-1-(ethoxymethyl)-5-(trifluoromethyl)pyrrole-3-carbonitrile”, the “% Helminth removal” value in assay [5] was 13%.

`N#Cc1cc[nH]c1-c1cc(F)c(Cl)cc1Cl` [2-(2,4-Dichloro-5-fluorophenyl)pyrrole-3-carbonitrile]: in assay [1], the mortality at 4 µg/cm2, 4 µg/cm2 turned out to be 73%.

Turning to `CCOCn1c(Cl)c(Cl)c(C#N)c1-c1ccc(OC(F)(F)F)cc1` [4,5-Dichloro-1-(ethoxymethyl)-2-[P-(trifluoromethoxy)phenyl]pyrrole-3-carbonitrile], the mortality at 4 µg/cm2, 4 µg/cm2 in assay [1] was determined as 100%.

On to `N#Cc1c(-c2ccc(C(F)(F)F)cc2)[nH]c([N+](=O)[O-])c1Br` [4-Bromo-5-nitro-2-(α,α,α-trifluoro-P-tolyl)pyrrole-3-carbonitrile], for which the “Rating Against C. Elegans 150 ppm” value in assay [3] is on record as 9.

Take `N#Cc1c(-c2cccc([N+](=O)[O-])c2)[nH]c(C(F)(F)F)c1Br` [4-Bromo-2-(m-nitrophenyl)-5-(trifluoromethyl)pyrrole-3-carbonitrile]: in assay [3], the “Rating Against C. Elegans 150 ppm” value is 9.

With `N#Cc1[nH]c(Br)c(C#N)c1-c1ccc(Cl)cc1` [5-Bromo-3-(P-chlorophenyl)-pyrrole-2,4-dicarbonitrile], the “Rating Against C. Elegans 150 ppm” value in assay [3] turned out to be 9.

For `N#CCn1c(Cl)c(Cl)c(C#N)c1-c1ccc(C(F)(F)F)cc1` [2,3-Dichloro-4-cyano-5-(α,α,α-trifluoro-P-tolyl)-pyrrole-1-acetonitrile], in assay [3], the “Rating Against C. Elegans 150 ppm” value is given as 9. This compound also returned an inhibition at 10 ppm in assay [4] of 100%. For the same compound, the mortality at 4 µg/cm2, 4 µg/cm2 in assay [1] is 77%.

In turn, `O=[N+]([O-])c1c(-c2ccc(Cl)cc2)[nH]c(Cl)c1Cl` [2,3-Dichloro-5-(P-chlorophenyl)-4-nitropyrrole] returned a mortality at 10 µg/cm2, 10 µg/cm2 in assay [2] of 58%. The “Rating Against C. Elegans 150 ppm” value in assay [3] is recorded as 9. For the same compound, in assay [1], the mortality at 4 µg/cm2, 4 µg/cm2 amounted to 52% and the mortality at 10 µg/cm2, 10 µg/cm2 amounted to 91%.

`N#Cc1cc(C#N)c(-c2ccc(Cl)c(Cl)c2)[nH]1` [5-(3,4-Dichlorophenyl)-pyrrole-3-dicarbonitrile]: the “Rating Against C. Elegans 150 ppm” value in assay [3] came to 9.

One may read the mortality as the percentage killed. By inhibition is commonly meant the share of the control response that was lost under treatment.

Values taken from patent US5310938A, “Substituted arylpyrrole compounds” (American Cyanamid Company, priority 1993, dated 1994).
